Values quoted from earlier work as cited in patent US20250281392A1, “TOPICAL DELIVERY OF EPINEPHRINE AND PRODRUG COMPOSITIONS” (Aquestive Therapeutics, Inc., priority 2024, published 2025).

Conditions: cited from earlier work

CCOCCOCCO [Diethylene glycol monoethyl ether]
Log P (octanol:water): −0.43
